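Five compound concentrations were applied to cells in 96-well plates for 48 hours; endpoints were derived by simple linear interpolation of the resulting dose-response curve. GI50 = concentration required for 50% inhibition of growth. Definition used: TGI = concentration required for complete inhibition of growth.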
Legend:
Test in all cases: NCI-60 cell line screen, 48 h
HCT-15 colon = test system: HCT-15 colon
UACC-62 melanoma = test system: UACC-62 melanoma
RPMI-8226 leukemia = test system: RPMI-8226 leukemia
DU-145 prostate = test system: DU-145 prostate
786-0 renal = test system: 786-0 renal
OVCAR-5 ovarian = test system: OVCAR-5 ovarian
IGROV1 ovarian = test system: IGROV1 ovarian
RXF 393 renal = test system: RXF 393 renal
SK-MEL-28 melanoma = test system: SK-MEL-28 melanoma
HL-60(TB) leukemia = test system: HL-60(TB) leukemia
MOLT-4 leukemia = test system: MOLT-4 leukemia
NCI-H522 lung = test system: NCI-H522 lung
MALME-3M melanoma = test system: MALME-3M melanoma
K-562 leukemia = test system: K-562 leukemia
SNB-19 CNS = test system: SNB-19 CNS
BT-549 breast = test system: BT-549 breast
KM12 colon = test system: KM12 colon
SF-539 CNS = test system: SF-539 CNS
A498 renal = test system: A498 renal
NCI-H226 lung = test system: NCI-H226 lung
HOP-92 NSCLC = test system: HOP-92 NSCLC
HT29 colon = test system: HT29 colon
OVCAR-8 ovarian = test system: OVCAR-8 ovarian
SK-OV-3 ovarian = test system: SK-OV-3 ovarian
HCT-116 colon = test system: HCT-116 colon
SR leukemia = test system: SR leukemia
SK-MEL-5 melanoma = test system: SK-MEL-5 melanoma
SN12C renal = test system: SN12C renal
TK-10 renal = test system: TK-10 renal
UO-31 renal = test system: UO-31 renal
SW-620 colon = test system: SW-620 colon
M14 melanoma = test system: M14 melanoma
HOP-62 NSCLC = test system: HOP-62 NSCLC
T-47D breast = test system: T-47D breast
PC-3 prostate = test system: PC-3 prostate
SNB-75 CNS = test system: SNB-75 CNS
NCI-H23 lung = test system: NCI-H23 lung
UACC-257 melanoma = test system: UACC-257 melanoma
MDA-MB-231 breast = test system: MDA-MB-231 breast
SF-295 CNS = test system: SF-295 CNS
A549 NSCLC = test system: A549 NSCLC
EKVX NSCLC = test system: EKVX NSCLC
CCRF-CEM leukemia = test system: CCRF-CEM leukemia
COLO 205 colon = test system: COLO 205 colon
HCC-2998 colon = test system: HCC-2998 colon
MDA-MB-435 = test system: MDA-MB-435
NCI/ADR-RES ovarian = test system: NCI/ADR-RES ovarian
ACHN renal = test system: ACHN renal
HS 578T breast = test system: HS 578T breast
MCF7 breast = test system: MCF7 breast
OVCAR-3 ovarian = test system: OVCAR-3 ovarian
OVCAR-4 ovarian = test system: OVCAR-4 ovarian
SK-MEL-2 melanoma = test system: SK-MEL-2 melanoma
LOX IMVI melanoma = test system: LOX IMVI melanoma
NCI-H460 lung = test system: NCI-H460 lung
U251 CNS = test system: U251 CNS
SF-268 CNS = test system: SF-268 CNS

SMILES: C=C1C(=O)O[C@H]2[C@H]1CC/C(COC(=O)NCc1cc3ccccc3[nH]1)=C\CC[C@@]1(C)O[C@@H]21
- GI50 (HCT-15 colon): 1.54 µM
- TGI (HCT-15 colon): 3.32 µM
- GI50 (UACC-62 melanoma): 1.62 µM
- TGI (UACC-62 melanoma): 3.2 µM
- GI50 (RPMI-8226 leukemia): 0.604 µM
- TGI (RPMI-8226 leukemia): 3.27 µM
- GI50 (DU-145 prostate): 1.52 µM
- TGI (DU-145 prostate): 2.93 µM
- GI50 (786-0 renal): 1.76 µM
- TGI (786-0 renal): 3.52 µM
- GI50 (OVCAR-5 ovarian): 2.26 µM
- TGI (OVCAR-5 ovarian): 5.12 µM
- GI50 (IGROV1 ovarian): 1.46 µM
- TGI (IGROV1 ovarian): 3.46 µM
- GI50 (RXF 393 renal): 1.09 µM
- TGI (RXF 393 renal): 2.36 µM
- GI50 (SK-MEL-28 melanoma): 1.74 µM
- TGI (SK-MEL-28 melanoma): 3.36 µM
- GI50 (HL-60(TB) leukemia): 0.865 µM
- TGI (HL-60(TB) leukemia): 3.16 µM
- GI50 (MOLT-4 leukemia): 2.43 µM
- TGI (MOLT-4 leukemia): 7.64 µM
- GI50 (NCI-H522 lung): 1.5 µM
- TGI (NCI-H522 lung): 3.29 µM
- GI50 (MALME-3M melanoma): 1.81 µM
- TGI (MALME-3M melanoma): 3.58 µM
- GI50 (K-562 leukemia): 1.63 µM
- TGI (K-562 leukemia): 9.18 µM
- GI50 (SNB-19 CNS): 5.62 µM
- TGI (SNB-19 CNS): 20.4 µM
- GI50 (BT-549 breast): 1.56 µM
- TGI (BT-549 breast): 3.14 µM
- GI50 (KM12 colon): 3.3 µM
- TGI (KM12 colon): 12.8 µM
- GI50 (SF-539 CNS): 1.73 µM
- TGI (SF-539 CNS): 3.26 µM
- GI50 (A498 renal): 10.9 µM
- TGI (A498 renal): 23.4 µM
- GI50 (NCI-H226 lung): 1.6 µM
- TGI (NCI-H226 lung): 3.15 µM
- GI50 (HOP-92 NSCLC): 1.29 µM
- TGI (HOP-92 NSCLC): 2.98 µM
- GI50 (HT29 colon): 2.21 µM
- TGI (HT29 colon): 4.7 µM
- GI50 (OVCAR-8 ovarian): 2.02 µM
- TGI (OVCAR-8 ovarian): 5.41 µM
- GI50 (SK-OV-3 ovarian): 13.8 µM
- TGI (SK-OV-3 ovarian): 26.8 µM
- GI50 (HCT-116 colon): 1.37 µM
- TGI (HCT-116 colon): 2.77 µM
- GI50 (SR leukemia): 2.32 µM
- TGI (SR leukemia): 8.75 µM
- GI50 (SK-MEL-5 melanoma): 2.98 µM
- TGI (SK-MEL-5 melanoma): 9.71 µM
- GI50 (SN12C renal): 1.45 µM
- TGI (SN12C renal): 3.17 µM
- GI50 (TK-10 renal): 2.26 µM
- TGI (TK-10 renal): 4.19 µM
- GI50 (UO-31 renal): 1.2 µM
- TGI (UO-31 renal): 2.43 µM
- GI50 (SW-620 colon): 1.72 µM
- TGI (SW-620 colon): 3.84 µM
- GI50 (M14 melanoma): 1.74 µM
- TGI (M14 melanoma): 3.85 µM
- GI50 (HOP-62 NSCLC): 10.3 µM
- TGI (HOP-62 NSCLC): 23.3 µM
- GI50 (T-47D breast): 1.8 µM
- TGI (T-47D breast): 4.33 µM
- GI50 (PC-3 prostate): 1.63 µM
- TGI (PC-3 prostate): 3.46 µM
- GI50 (SNB-75 CNS): 3.91 µM
- TGI (SNB-75 CNS): 19.2 µM
- GI50 (NCI-H23 lung): 2.16 µM
- TGI (NCI-H23 lung): 5.18 µM
- GI50 (UACC-257 melanoma): 2.11 µM
- TGI (UACC-257 melanoma): 4.61 µM
- GI50 (MDA-MB-231 breast): 1.65 µM
- TGI (MDA-MB-231 breast): 3.57 µM
- GI50 (SF-295 CNS): 8.23 µM
- TGI (SF-295 CNS): 20.9 µM
- GI50 (A549 NSCLC): 10.3 µM
- TGI (A549 NSCLC): 27.2 µM
- GI50 (EKVX NSCLC): 1.64 µM
- TGI (EKVX NSCLC): 3.53 µM
- GI50 (CCRF-CEM leukemia): 0.443 µM
- TGI (CCRF-CEM leukemia): 3.36 µM
- GI50 (COLO 205 colon): 1.8 µM
- TGI (COLO 205 colon): 3.59 µM
- GI50 (HCC-2998 colon): 2.02 µM
- TGI (HCC-2998 colon): 3.67 µM
- GI50 (MDA-MB-435): 1.75 µM
- TGI (MDA-MB-435): 3.48 µM
- GI50 (NCI/ADR-RES ovarian): 2.52 µM
- TGI (NCI/ADR-RES ovarian): 8.06 µM
- GI50 (ACHN renal): 1.38 µM
- TGI (ACHN renal): 2.75 µM
- GI50 (HS 578T breast): 2.8 µM
- TGI (HS 578T breast): 15.6 µM
- GI50 (MCF7 breast): 1.45 µM
- TGI (MCF7 breast): 3.26 µM
- GI50 (OVCAR-3 ovarian): 1.69 µM
- TGI (OVCAR-3 ovarian): 3.52 µM
- GI50 (OVCAR-4 ovarian): 2.2 µM
- TGI (OVCAR-4 ovarian): 7.63 µM
- GI50 (SK-MEL-2 melanoma): 2.46 µM
- TGI (SK-MEL-2 melanoma): 7.25 µM
- GI50 (LOX IMVI melanoma): 1.26 µM
- TGI (LOX IMVI melanoma): 2.61 µM
- GI50 (NCI-H460 lung): 3.78 µM
- TGI (NCI-H460 lung): 14.6 µM
- GI50 (U251 CNS): 4.59 µM
- TGI (U251 CNS): 16.4 µM
- GI50 (SF-268 CNS): 2.08 µM
- TGI (SF-268 CNS): 5.4 µM

Source: PubChem BioAssay (NCI)
